Laboratory results published in paper PMC12299203, “Pyrrolopyrimidines: Design, Synthesis and Antitumor Properties of Novel Tricyclic Pyrrolo [2,3-d]pyrimidine Derivatives” (Molecules, 2025).
Read-outs that look alike come from different tables or passages of the source.

How the values were obtained:
[1] = tested on: HeLa (cervical) cell line; set-up: method as in PMID 36197552; details: previous research ref 29; cited from earlier work
HT-29 (colon) cell line [2] = tested on: HT-29 (colon) cell line; set-up: method as in PMID 36197552; details: previous research ref 29; cited from earlier work
MCF-7 (breast) cell line = assay: MTT cytotoxic activity assay, MCF-7; assay type: cell-based, human; details: for IC50: Homo sapiens, MCF7, 72 h
Method: (§1) All the synthesized tricyclic pyrrolo[2,3-d]pyrimidines 8a–j and 10a–f were evaluated for their cytotoxic activity on cancer cell lines derived from the most common cancers: breast (MCF-7), cervical (HeLa), and colon (HT-29). Human cancer cell lines were treated with synthesized compounds, using doxorubicin (DOX) as a positive control, at concentrations of the compounds ranging from 0.001 to 6.561 μM. Cells were incubated at 37 °C for 72 h before measurement, and IC50 values were determined graphically. In our previous research, the cytotoxic activity of compounds 6a and 6b was also evaluated on the same human cancer cell lines used in the current study.
(§2) The MCF-7, HeLa, and HT-29 cell lines, obtained from the Chinese Type Culture Collection, CAS (Shanghai, China), were used as models for cytotoxicity screening. The samples were dissolved in dimethyl sulfoxide (DMSO) (50 μM) and stored at 4 °C. Cell viability was determined using the MTT assay. For the MTT assay, the target cells were seeded in 96-well plates and treated with the synthesized samples for 72 h. Then, 5 mg/mL MTT was added to the culture medium, and 10 μL/well was added. The plate was then incubated in the dark at 37 °C for 4 h. The medium was removed, and 100 μL of dimethyl sulfoxide was added per well. OD570 was measured using Spectra Max M5 (Molecular Devices, CA, USA). Cell viability (%) = ODcompound /ODDMSO × 100%. IC50 values were calculated using GraphPad Prism 9 (CA, USA) by nonlinear regression of the log-transformed data (X Log[X]), with the log (inhibitor) vs. normalized response-variable slope tool.

HT-29 (colon) cell line [3] = assay: MTT cytotoxic activity assay, HT-29; assay type: cell-based; details: Homo sapiens, 72 h
Method: as §1, §2

[4] = tested on: HeLa (cervical) cell line; assay: MTT cytotoxic activity assay, HeLa; assay type: cell-based, human; details: 72 h; for IC50: Homo sapiens, HeLa
Method: as §1, §2

[5] = tested on: human embryonic kidney (HEK-293) cells; assay: Cytotoxicity on non-cancerous HEK-293 cells; assay type: cell-based; details: HEK293, read-out: IC50 (±SD), HEK-293
Method: On the other hand, the inactivity of these leads on HeLa and MCF-7 cells (IC50 ≥ 50 µM) indicates specific tumor type selectivity. […] The selectivity index (SI) was then calculated as the ratio of the IC50 values for HEK-293 and HT-29 cells and is shown in Table 2.
as §2

[6] = tested on: HeLa, MCF-7 and HT-29 cell lines; assay: MTT cytotoxic activity, stated across the three cancer cell lines; assay type: cell-based, human; details: span over HeLa, MCF-7, HT-29; for IC50: Homo sapiens, read-out: IC50 across all three cell lines
Method: as §1, §2

| SMILES | IC50 (MCF-7 (breast) cell line) | IC50 (HT-29 (colon) cell line [3]) | IC50 [4] | also measured |
| --- | --- | --- | --- | --- |
| Cn1c(-c2ccc(Cl)cc2)cc2c(=O)n3c(nc21)CCCC3 [Compound 6a, 2-(4-Chlorophenyl)-1-methyl-6,7,8,9-tetrahydropyrido[1,2-a]pyrrolo[2,3-d]pyrimidin-4(1H)-one] | – | – | – | IC50 [1]: 6.55 ± 0.31 µM; IC50 (HT-29 (colon) cell line [2]): 24 ± 0.47 µM |
| Cn1c(-c2ccc(Br)cc2)cc2c(=O)n3c(nc21)CCCCC3 [Compound 6b, 2-(4-Bromophenyl)-1-methyl-1,6,7,8,9,10-hexahydro-4H-pyrrolo[2’,3’:4,5]pyrimido[1,2-a]azepin-4-one] | – | – | – | IC50 [1]: ≥ 50 µM; IC50 (HT-29 (colon) cell line [2]): 7.61 ± 0.31 µM |
| Cn1c(-c2ccc(Cl)cc2)cc2/c(=N\c3ccccc3)n3c(nc21)CCCC3 [Compound 8a, (E)-2-(4-Chlorophenyl)-1-methyl-N-phenyl-6,7,8,9-tetrahydropyrido[1,2-a]pyrrolo[2,3-d]pyrimidin-4(1H)-imine] | ≥ 50 µM | 19.2 ± 0.91 µM | ≥ 50 µM | – |
| Cn1c(-c2ccc(Cl)cc2)cc2/c(=N\c3ccc(F)cc3)n3c(nc21)CCCC3 [Compound 8b, (E)-2-(4-Chlorophenyl)-N-(4-fluorophenyl)-1-methyl-6,7,8,9-tetrahydropyrido[1,2-a]pyrrolo[2,3-d]pyrimidin-4(1H)-imine] | ≥ 50 µM | ≥ 50 µM | ≥ 50 µM | – |
| Cn1c(-c2ccc(Cl)cc2)cc2/c(=N\c3ccc(Cl)cc3)n3c(nc21)CCCC3 [Compound 8c, (E)-N,2-Bis(4-chlorophenyl)-1-methyl-6,7,8,9-tetrahydropyrido[1,2-a]pyrrolo[2,3-d]pyrimidin-4(1H)-imine] | ≥ 50 µM | ≥ 50 µM | ≥ 50 µM | – |
| Cn1c(-c2ccc(Cl)cc2)cc2/c(=N\c3ccc(Br)cc3)n3c(nc21)CCCC3 [Compound 8d, (E)-N-(4-Bromophenyl)-2-(4-chlorophenyl)-1-methyl-6,7,8,9-tetrahydropyrido[1,2-a]pyrrolo[2,3-d]pyrimidin-4(1H)-imine] | ≥ 50 µM | ≥ 50 µM | ≥ 50 µM | – |
| Cn1c(-c2ccc(Cl)cc2)cc2/c(=N\c3ccc(C(F)(F)F)cc3)n3c(nc21)CCCC3 [Compound 8e, (E)-2-(4-Chlorophenyl)-1-methyl-N-(4-(trifluoromethyl)phenyl)-6,7,8,9-tetrahydropyrido[1,2-a]pyrrolo[2,3-d]pyrimidin-4(1H)-imine] | ≥ 50 µM | ≥ 50 µM | ≥ 50 µM | – |
| Cn1c(-c2ccc(Br)cc2)cc2/c(=N\c3ccccc3)n3c(nc21)CCCCC3 [Compound 8f, (E)-2-(4-Bromophenyl)-1-methyl-N-phenyl-1,6,7,8,9,10-hexahydro-4H-pyrrolo[2’,3’:4,5]pyrimido[1,2-a]azepin-4-imine] | ≥ 50 µM | 4.55 ± 0.23 µM | ≥ 50 µM | IC50 [5]: 195 ± 0.07 µM |
| Cn1c(-c2ccc(Br)cc2)cc2/c(=N\c3ccc(F)cc3)n3c(nc21)CCCCC3 [Compound 8g, (E)-2-(4-Bromophenyl)-N-(4-fluorophenyl)-1-methyl-1,6,7,8,9,10-hexahydro-4H-pyrrolo[2’,3’:4,5]pyrimido[1,2-a]azepin-4-imine] | ≥ 50 µM | 4.01 ± 0.2 µM | ≥ 50 µM | IC50 [5]: 169 ± 0.1 µM |
| Cn1c(-c2ccc(Br)cc2)cc2/c(=N\c3ccc(Cl)cc3)n3c(nc21)CCCCC3 [Compound 8h, (E)-2-(4-Bromophenyl)-N-(4-chlorophenyl)-1-methyl-1,6,7,8,9,10-hexahydro-4H-pyrrolo[2’,3’:4,5]pyrimido[1,2-a]azepin-4-imine] | ≥ 50 µM | ≥ 50 µM | ≥ 50 µM | – |
| Cn1c(-c2ccc(Br)cc2)cc2/c(=N\c3ccc(Br)cc3)n3c(nc21)CCCCC3 [Compound 8i, (E)-N,2-Bis(4-bromophenyl)-1-methyl-1,6,7,8,9,10-hexahydro-4H-pyrrolo[2’,3’:4,5]pyrimido[1,2-a]azepin-4-imine] | ≥ 50 µM | ≥ 50 µM | ≥ 50 µM | – |
| Cn1c(-c2ccc(Br)cc2)cc2/c(=N\c3ccc(C(F)(F)F)cc3)n3c(nc21)CCCCC3 [Compound 8j, (E)-2-(4-Bromophenyl)-1-methyl-N-(4-(trifluoromethyl)phenyl)-1,6,7,8,9,10-hexahydro-4H-pyrrolo[2’,3’:4,5]pyrimido[1,2-a]azepin-4-imine] | ≥ 50 µM | ≥ 50 µM | ≥ 50 µM | – |
| Cn1c(-c2ccc(Cl)cc2)c(Cl)c2c(=O)n3c(nc21)CCCC3 [Compound 10a, 3-Chloro-2-(4-chlorophenyl)-1-methyl-6,7,8,9-tetrahydropyrido[1,2-a]pyrrolo[2,3-d]pyrimidin-4(1H)-one] | 27.5 ± 1.07 µM | 24.7 ± 1.13 µM | 22.8 ± 0.98 µM | IC50 [6]: 23 to 28 µM; IC50, HeLa [4]: moderate activity |
| Cn1c(-c2ccc(Cl)cc2)c(Br)c2c(=O)n3c(nc21)CCCC3 [Compound 10b, 3-Bromo-2-(4-chlorophenyl)-1-methyl-6,7,8,9-tetrahydropyrido[1,2-a]pyrrolo[2,3-d]pyrimidin-4(1H)-one] | 20.1 ± 0.93 µM | ≥ 50 µM | ≥ 50 µM | IC50, MCF-7 (MCF-7 (breast) cell line; 72 h): moderate activity; IC50 across all three cell lines [6]: selective yet weaker activity |
| Cn1c(-c2ccc(Cl)cc2)c(I)c2c(=O)n3c(nc21)CCCC3 [Compound 10c, 2-(4-Chlorophenyl)-3-iodo-1-methyl-6,7,8,9-tetrahydropyrido[1,2-a]pyrrolo[2,3-d]pyrimidin-4(1H)-one] | ≥ 50 µM | 34.2 ± 1.6 µM | ≥ 50 µM | IC50 across all three cell lines [6]: selective yet weaker activity |
| Cn1c(-c2ccc(Br)cc2)c(Cl)c2c(=O)n3c(nc21)CCCCC3 [Compound 10d, 2-(4-Bromophenyl)-3-chloro-1-methyl-1,6,7,8,9,10-hexahydro-4H-pyrrolo[2’,3’:4,5]pyrimido[1,2-a]azepin-4-one] | ≥ 50 µM | ≥ 50 µM | ≥ 50 µM | – |
| Cn1c(-c2ccc(Br)cc2)c(Br)c2c(=O)n3c(nc21)CCCCC3 [Compound 10e, 3-Bromo-2-(4-bromophenyl)-1-methyl-1,6,7,8,9,10-hexahydro-4H-pyrrolo[2’,3’:4,5]pyrimido[1,2-a]azepin-4-one] | ≥ 50 µM | 16 ± 0.75 µM | ≥ 50 µM | IC50 across all three cell lines [6]: selective yet weaker activity |
| Cn1c(-c2ccc(Br)cc2)c(I)c2c(=O)n3c(nc21)CCCCC3 [Compound 10f, 2-(4-Bromophenyl)-3-iodo-1-methyl-1,6,7,8,9,10-hexahydro-4H-pyrrolo[2’,3’:4,5]pyrimido[1,2-a]azepin-4-one] | ≥ 50 µM | 19 ± 0.92 µM | ≥ 50 µM | IC50 across all three cell lines [6]: selective yet weaker activity |
| COc1cccc2c1C(=O)c1c(O)c3c(c(O)c1C2=O)C[C@@](O)(C(=O)CO)C[C@@H]3O[C@H]1C[C@H](N)[C@H](O)[C@H](C)O1 [DOX, doxorubicin, reference compound] | 0.18 ± 0.011 µM | 0.82 ± 0.029 µM | 0.94 ± 0.016 µM | IC50 [6]: 0.18 to 0.94 µM |
